Measured values from ChEMBL document CHEMBL4152362, “Discovery of DS-6930, a potent selective PPARγ modulator. Part II: Lead optimization” (Bioorg Med Chem, 2018).
Values belong to the compound of their own block, whether it stands above or below them.

Key:
[1] = Cmax in F344/DuCrlCrlj rat at 300 mg/kg, po via gavage measured on day 28 post dose; assay type: ADME, organism-based; parameters: dose 300 mg/kg, route oral; settings: in vivo
[2] = Cmax in F344/DuCrlCrlj rat at 1000 mg/kg, po via gavage measured on day 28 post dose; assay type: ADME, organism-based; parameters: dose 1000 mg/kg, route oral; settings: in vivo
[3] = Cmax in F344/DuCrlCrlj rat at 100 mg/kg, po via gavage measured on day 28 post dose; assay type: ADME, organism-based; parameters: dose 100 mg/kg, route oral; settings: in vivo
[4] = Tmax in F344/DuCrlCrlj rat at 100 mg/kg, po via gavage measured on day 28 post dose; assay type: ADME, organism-based; settings: in vivo
[5] = Tmax in F344/DuCrlCrlj rat at 300 mg/kg, po via gavage measured on day 28 post dose; assay type: ADME, organism-based; settings: in vivo
[6] = AUC (0 to 24 hrs) in F344/DuCrlCrlj rat at 1000 mg/kg, po via gavage measured on day 28 post dose; assay type: ADME, organism-based; parameters: time < 24 hr, dose 1000 mg/kg, route oral; settings: in vivo
[7] = AUC (0 to 24 hrs) in F344/DuCrlCrlj rat at 300 mg/kg, po via gavage measured on day 28 post dose; assay type: ADME, organism-based; parameters: time < 24 hr, dose 300 mg/kg, route oral; settings: in vivo
[8] = AUC (0 to 24 hrs) in F344/DuCrlCrlj rat at 100 mg/kg, po via gavage measured on day 28 post dose; assay type: ADME, organism-based; parameters: dose 100 mg/kg, time < 24 hr, route oral; settings: in vivo
[9] = Drug uptake in F344/DuCrlCrlj rat plasma administered via oral gavage measured on day 28 post dose; assay type: ADME
[10] = Tmax in F344/DuCrlCrlj rat at 1000 mg/kg, po via gavage measured on day 28 post dose; assay type: ADME, organism-based; settings: in vivo
[11] = target: T1, Peroxisome proliferator-activated receptor alpha (Homo sapiens, UniProt Q07869); assay: Agonist activity at recombinant human GAL4-DBD fused PPARalpha LBD expressed in COS7 cells after 24 hrs by luciferase reporter gene assay; assay type: cell-based
T1 sequence (Q07869 whole entry): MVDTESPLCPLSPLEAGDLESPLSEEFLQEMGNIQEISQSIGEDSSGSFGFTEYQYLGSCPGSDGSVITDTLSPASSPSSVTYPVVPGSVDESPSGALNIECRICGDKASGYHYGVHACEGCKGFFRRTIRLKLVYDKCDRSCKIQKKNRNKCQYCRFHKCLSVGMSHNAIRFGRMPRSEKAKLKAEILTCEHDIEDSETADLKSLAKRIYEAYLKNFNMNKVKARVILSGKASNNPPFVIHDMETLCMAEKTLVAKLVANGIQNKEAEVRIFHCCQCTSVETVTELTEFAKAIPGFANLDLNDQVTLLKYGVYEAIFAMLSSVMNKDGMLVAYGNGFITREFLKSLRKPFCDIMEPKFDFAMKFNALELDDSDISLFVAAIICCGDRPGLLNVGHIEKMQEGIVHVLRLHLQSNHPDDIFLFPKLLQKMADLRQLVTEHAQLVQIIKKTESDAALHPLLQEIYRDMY

[12] = target: T2, Peroxisome proliferator-activated receptor gamma (Homo sapiens, UniProt P37231); assay: Agonist activity at recombinant human GAL4-DBD fused PPARgamma LBD expressed in COS7 cells after 24 hrs by luciferase reporter gene assay; assay type: cell-based
T2 sequence (P37231 whole entry): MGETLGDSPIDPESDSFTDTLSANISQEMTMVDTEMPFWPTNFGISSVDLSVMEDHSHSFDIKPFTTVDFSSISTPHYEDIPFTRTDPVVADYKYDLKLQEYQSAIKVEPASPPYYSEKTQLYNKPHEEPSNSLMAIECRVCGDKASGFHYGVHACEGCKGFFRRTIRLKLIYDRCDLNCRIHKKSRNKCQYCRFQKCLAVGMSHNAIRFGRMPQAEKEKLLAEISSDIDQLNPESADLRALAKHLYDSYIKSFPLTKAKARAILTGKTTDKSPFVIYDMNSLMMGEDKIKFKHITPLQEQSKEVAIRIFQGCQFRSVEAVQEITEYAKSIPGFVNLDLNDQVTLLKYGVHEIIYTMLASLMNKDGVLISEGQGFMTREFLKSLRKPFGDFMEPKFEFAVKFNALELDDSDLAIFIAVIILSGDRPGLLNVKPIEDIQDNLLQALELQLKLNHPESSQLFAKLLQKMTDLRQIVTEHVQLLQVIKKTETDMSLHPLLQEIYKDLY

[13] = Half life in cynomolgus monkey at 3 mg/kg, po by LC-MS/MS; assay type: ADME, organism-based, Macaca fascicularis; settings: in vivo
[14] = Tmax in cynomolgus monkey at 3 mg/kg, po by LC-MS/MS; assay type: ADME, organism-based, Macaca fascicularis; settings: in vivo
[15] = target: T3, Peroxisome proliferator-activated receptor alpha (Homo sapiens) (UniProt Q07869); assay: Agonist activity at recombinant human GAL4-DBD fused PPARalpha LBD expressed in COS7 cells at 10 uM after 24 hrs by luciferase reporter gene assay relative to 2-(4-tert-Butylphenoxy)-3-[4-[2-[(4-pyridin-2-ylbenzoyl)amino]ethoxy] phenyl]propionic acid; assay type: cell-based
T3 sequence (whole entry): T1 sequence (Q07869 whole entry)

[16] = tested on: Hepatocyte; assay: Cytotoxicity against F344/DuCrlCrlj rat primary hepatocytes assessed as reduction in mitochondrial enzyme activity at 100 uM after 24 hrs by WST8 assay relative to control; assay type: cell-based; parameters: scale not given: the % may be the effect or the level left
[17] = Volume of distribution at steady state in cynomolgus monkey at 1 mg/kg, iv by LC-MS/MS; assay type: ADME, organism-based, Macaca fascicularis; settings: in vivo, read-out: Vdss
[18] = AUClast in cynomolgus monkey at 3 mg/kg, po by LC-MS/MS; assay type: ADME, organism-based, Macaca fascicularis; parameters: dose 3 mg/kg, time 0 - last, route oral; settings: in vivo
[19] = 1-octanol/PBS distribution co-efficient, log D of the compound at […] at pH 7.4 after 30 mins by HPLC-MS/MS method; assay type: physicochemical
[20] = Metabolic stability in cynomolgus monkey liver microsomes after 0.5 hrs; assay type: ADME, Macaca fascicularis, microsome; settings: read-out: Stability
[21] = tested on: Hepatocyte; assay: Cytotoxicity against F344/DuCrlCrlj rat primary hepatocytes assessed as reduction in mitochondrial enzyme activity at 10 to 100 uM after 24 hrs by WST8 assay; assay type: cell-based
[22] = Apparent permeability of the compound after 4 hrs by PAMPA; assay type: ADME
[23] = Clearance in cynomolgus monkey at 1 mg/kg, iv by LC-MS/MS; assay type: ADME, organism-based, Macaca fascicularis; settings: in vivo
[24] = Oral bioavailability in cynomolgus monkey at 3 mg/kg by LC-MS/MS; assay type: ADME, organism-based, Macaca fascicularis; settings: in vivo
[25] = Cmax in cynomolgus monkey at 3 mg/kg, po by LC-MS/MS; assay type: ADME, organism-based, Macaca fascicularis; parameters: dose 3 mg/kg, route oral; settings: in vivo
[26] = target: T4, Peroxisome proliferator-activated receptor gamma (Homo sapiens) (UniProt P37231); assay: Agonist activity at recombinant human GAL4-DBD fused PPARgamma LBD expressed in COS7 cells at 10 uM after 24 hrs by luciferase reporter gene assay relative to rosiglitazone; assay type: cell-based
T4 sequence (whole entry): T2 sequence (P37231 whole entry)

[27] = Metabolic stability in human liver microsomes after 0.5 hrs; assay type: ADME, microsome; settings: read-out: Stability

- Cmax [1]: 206 µg/mL
- Cmax [2]: 273 µg/mL
- Cmax [3]: 92.8 µg/mL
- Tmax [4]: 0.5 h
- Tmax [5]: 0.5 h
- AUC at 24 h [6]: 1080 µg·h/mL
- AUC at 24 h [7]: 933 µg·h/mL
- AUC at 24 h [8]: 399 µg·h/mL
- Drug uptake [9]: Dose-dependent effect
- Tmax [10]: 1 h
Structure (SMILES): Cc1cnc(Oc2ccc3nc(COc4cccc(C(=O)O)c4)n(C)c3c2)c(C)c1.Cl

- EC50 [11]: > 10000 nM
- EC50 [12]: 68 nM
- half-life [13]: 18.3 h
- Tmax [14]: 1.67 h
- Emax [15]: 32%
- Vd [17]: 0.2 L/kg
- AUC(0-t) [18]: 40.2 µg·h/mL
- logD at 0.5 h [19]: 2.7
- remaining at 0.5 h [20]: 100%
- Papp at 4 h [22]: 38.5 ×10⁻⁶ cm/s
- clearance [23]: 0.32 mL/min/kg
- bioavailability [24]: 25%
- Cmax [25]: 4.44 µg/mL
- Emax [26]: 82%
- remaining at 0.5 h [27]: 100%
Structure (SMILES): Cn1c(COc2cccc(C(=O)O)c2)nc2ccc(Oc3ccc(Cl)c(F)c3)cc21
- Activity [16]: 19%
- Activity [21]: Dose-dependent effect
